Source: the kinase profiling compilation of Christmann-Franck et al. (2016)

Experiments:
Assay in all cases: radiometric filter-binding kinase assay, Kinase HotSpot
Details in all cases: compound 0.5 µM; ATP 10 µM
CDC42BPB (human) = CDC42BPB (human) (UniProt Q9Y5S2)
PHKG1 (human) = PHKG1 (human) (UniProt Q16816)
MARK2 (human) = MARK2 (human) (UniProt Q7KZI7)
MAP3K2 (human) = MAP3K2 (human) (UniProt Q9Y2U5)
CSNK2A1 (human) = CSNK2A1 (human) (UniProt P68400)
PAK3 (human) = PAK3 (human) (UniProt O75914)
CLK4 (human) = CLK4 (human) (UniProt Q9HAZ1)
INSRR (human) = INSRR (human) (UniProt P14616)
IGF1R (human) = IGF1R (human) (UniProt P08069)
RPS6KB1 (human) = RPS6KB1 (human) (UniProt P23443)
PAK2 (human) = PAK2 (human) (UniProt Q13177)
NEK11 (human) = NEK11 (human) (UniProt Q8NG66)
SRPK1 (human) = SRPK1 (human) (UniProt Q96SB4)
NLK (human) = NLK (human) (UniProt Q9UBE8)
IRAK1 (human) = IRAK1 (human) (UniProt P51617)
AKT2 (human) = AKT2 (human) (UniProt P31751)
ULK1 (human) = ULK1 (human) (UniProt O75385)
PRKCB2 (human) = PRKCB2 (human) (UniProt P05771)
DYRK2 (human) = DYRK2 (human) (UniProt Q92630)
ERBB2 (human) = ERBB2 (human) (UniProt P04626)
ULK2 (human) = ULK2 (human) (UniProt Q8IYT8)
EPHA3 (human) = EPHA3 (human) (UniProt P29320)
STK10 (human) = STK10 (human) (UniProt O94804)
CSNK1G2 (human) = CSNK1G2 (human) (UniProt P78368)
RPS6KA3 KD1 KD2 (human) = RPS6KA3 KD1 KD2 (human) (UniProt P51812)
MET (human) = MET (human) (UniProt P08581)
CDK5 CDK5R1 p35 (human) = CDK5 CDK5R1 p35 (human) (UniProt Q00535+Q15078)
RET (human) = RET (human) (UniProt P07949)
NTRK3 (human) = NTRK3 (human) (UniProt Q16288)
PBK (human) = PBK (human) (UniProt Q96KB5)
GSK3B (human) = GSK3B (human) (UniProt P49841)
TSSK1B (human) = TSSK1B (human) (UniProt Q9BXA7)
LRRK2 (human) = LRRK2 (human) (UniProt Q5S007)
CHUK (human) = CHUK (human) (UniProt O15111)
MAP2K2 (human) = MAP2K2 (human) (UniProt P36507)
DMPK (human) = DMPK (human) (UniProt Q09013)
PLK2 (human) = PLK2 (human) (UniProt Q9NYY3)
HIPK2 (human) = HIPK2 (human) (UniProt Q9H2X6)
MARK3 (human) = MARK3 (human) (UniProt P27448)
MUSK (human) = MUSK (human) (UniProt O15146)
PDGFRA (human) = PDGFRA (human) (UniProt P16234)
DDR2 (human) = DDR2 (human) (UniProt Q16832)

IRAK1 (human), sequence (P51617 whole entry, looked up): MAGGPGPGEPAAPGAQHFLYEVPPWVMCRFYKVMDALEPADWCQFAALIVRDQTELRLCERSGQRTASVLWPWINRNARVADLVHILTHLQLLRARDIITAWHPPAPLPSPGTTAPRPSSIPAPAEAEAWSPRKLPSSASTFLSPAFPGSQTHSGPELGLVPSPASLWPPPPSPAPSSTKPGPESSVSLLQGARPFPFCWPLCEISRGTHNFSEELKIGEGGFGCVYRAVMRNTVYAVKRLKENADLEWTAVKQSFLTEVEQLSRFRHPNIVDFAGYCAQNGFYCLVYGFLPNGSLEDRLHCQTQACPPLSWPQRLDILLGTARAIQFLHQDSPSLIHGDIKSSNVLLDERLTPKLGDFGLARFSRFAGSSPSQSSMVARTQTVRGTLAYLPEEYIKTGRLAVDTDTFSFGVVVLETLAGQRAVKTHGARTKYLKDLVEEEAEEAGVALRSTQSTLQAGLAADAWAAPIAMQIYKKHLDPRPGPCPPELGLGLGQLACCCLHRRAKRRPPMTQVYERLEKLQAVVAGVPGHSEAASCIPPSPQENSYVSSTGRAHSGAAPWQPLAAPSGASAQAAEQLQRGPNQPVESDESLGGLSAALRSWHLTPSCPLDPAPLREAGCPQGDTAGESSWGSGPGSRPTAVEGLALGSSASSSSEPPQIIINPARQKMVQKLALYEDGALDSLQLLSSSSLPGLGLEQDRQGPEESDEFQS
MUSK (human), sequence (O15146 whole entry, looked up): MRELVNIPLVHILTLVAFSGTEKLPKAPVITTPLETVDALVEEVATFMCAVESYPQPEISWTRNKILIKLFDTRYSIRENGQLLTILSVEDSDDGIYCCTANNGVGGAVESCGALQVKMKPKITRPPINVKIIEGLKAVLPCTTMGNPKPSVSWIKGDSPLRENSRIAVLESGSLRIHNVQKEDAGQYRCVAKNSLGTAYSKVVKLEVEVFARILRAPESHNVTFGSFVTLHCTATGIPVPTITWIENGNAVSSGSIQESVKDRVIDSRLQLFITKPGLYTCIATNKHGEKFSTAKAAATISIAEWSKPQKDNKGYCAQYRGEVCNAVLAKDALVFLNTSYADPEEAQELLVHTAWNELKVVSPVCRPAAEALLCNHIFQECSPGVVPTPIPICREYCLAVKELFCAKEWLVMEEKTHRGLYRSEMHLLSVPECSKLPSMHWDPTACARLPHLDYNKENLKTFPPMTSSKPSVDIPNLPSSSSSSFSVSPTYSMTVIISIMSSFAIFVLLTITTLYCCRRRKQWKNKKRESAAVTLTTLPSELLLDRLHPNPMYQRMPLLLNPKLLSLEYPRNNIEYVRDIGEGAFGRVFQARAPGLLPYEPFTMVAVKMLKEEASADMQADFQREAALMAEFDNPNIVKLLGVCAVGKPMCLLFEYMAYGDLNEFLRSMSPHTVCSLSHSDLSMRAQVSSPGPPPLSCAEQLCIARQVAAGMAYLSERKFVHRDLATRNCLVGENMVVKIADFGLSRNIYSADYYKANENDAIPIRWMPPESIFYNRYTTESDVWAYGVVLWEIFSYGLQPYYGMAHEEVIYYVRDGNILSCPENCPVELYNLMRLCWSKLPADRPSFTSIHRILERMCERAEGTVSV
MAP2K2 (human), sequence (P36507 whole entry, looked up): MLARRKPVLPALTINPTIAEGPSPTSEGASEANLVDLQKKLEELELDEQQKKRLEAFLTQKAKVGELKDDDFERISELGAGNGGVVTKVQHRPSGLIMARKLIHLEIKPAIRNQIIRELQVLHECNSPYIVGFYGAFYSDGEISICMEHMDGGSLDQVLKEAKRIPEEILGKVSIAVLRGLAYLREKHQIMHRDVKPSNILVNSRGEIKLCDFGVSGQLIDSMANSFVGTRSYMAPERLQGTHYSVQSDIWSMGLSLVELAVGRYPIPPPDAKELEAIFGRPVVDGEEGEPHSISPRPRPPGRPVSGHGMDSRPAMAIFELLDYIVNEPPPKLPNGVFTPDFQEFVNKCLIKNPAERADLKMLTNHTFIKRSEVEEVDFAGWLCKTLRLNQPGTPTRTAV
MET (human), sequence (P08581 whole entry, looked up): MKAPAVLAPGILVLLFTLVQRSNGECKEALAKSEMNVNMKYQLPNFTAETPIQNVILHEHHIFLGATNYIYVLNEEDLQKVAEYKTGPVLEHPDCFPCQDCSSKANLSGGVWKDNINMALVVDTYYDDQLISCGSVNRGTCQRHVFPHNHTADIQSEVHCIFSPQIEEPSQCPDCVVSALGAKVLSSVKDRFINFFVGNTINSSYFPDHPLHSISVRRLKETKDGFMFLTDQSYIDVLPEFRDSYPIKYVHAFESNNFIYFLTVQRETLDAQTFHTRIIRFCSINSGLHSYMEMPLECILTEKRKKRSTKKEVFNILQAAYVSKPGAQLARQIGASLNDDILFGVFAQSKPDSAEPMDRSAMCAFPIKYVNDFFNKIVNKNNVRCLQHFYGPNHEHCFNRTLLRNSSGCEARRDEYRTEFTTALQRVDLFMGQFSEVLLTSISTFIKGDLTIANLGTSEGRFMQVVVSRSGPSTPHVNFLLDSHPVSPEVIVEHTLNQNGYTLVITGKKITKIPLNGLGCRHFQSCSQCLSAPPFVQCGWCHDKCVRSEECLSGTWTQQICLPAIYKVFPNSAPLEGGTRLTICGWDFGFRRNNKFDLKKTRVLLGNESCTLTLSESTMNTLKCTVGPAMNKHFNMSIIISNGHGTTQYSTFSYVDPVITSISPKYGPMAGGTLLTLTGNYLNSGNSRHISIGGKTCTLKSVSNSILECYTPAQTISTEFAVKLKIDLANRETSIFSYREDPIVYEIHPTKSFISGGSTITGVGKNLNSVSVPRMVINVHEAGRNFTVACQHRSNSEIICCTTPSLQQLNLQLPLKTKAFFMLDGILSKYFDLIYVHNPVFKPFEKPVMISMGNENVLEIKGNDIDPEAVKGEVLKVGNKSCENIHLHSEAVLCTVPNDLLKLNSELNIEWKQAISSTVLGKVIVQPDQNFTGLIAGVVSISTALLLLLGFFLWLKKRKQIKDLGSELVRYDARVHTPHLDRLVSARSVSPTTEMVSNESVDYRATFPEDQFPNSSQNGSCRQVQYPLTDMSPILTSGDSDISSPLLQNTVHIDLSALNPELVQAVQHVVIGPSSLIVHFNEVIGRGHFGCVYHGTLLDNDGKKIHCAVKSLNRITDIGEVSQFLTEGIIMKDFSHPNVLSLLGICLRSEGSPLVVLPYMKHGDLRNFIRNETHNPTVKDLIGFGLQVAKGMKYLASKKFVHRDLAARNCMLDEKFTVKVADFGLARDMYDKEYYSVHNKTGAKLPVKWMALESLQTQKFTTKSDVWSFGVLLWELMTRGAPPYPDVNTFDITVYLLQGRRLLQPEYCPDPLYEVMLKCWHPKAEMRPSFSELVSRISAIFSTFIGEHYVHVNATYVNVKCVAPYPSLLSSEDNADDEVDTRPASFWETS
HIPK2 (human), sequence (Q9H2X6 whole entry, looked up): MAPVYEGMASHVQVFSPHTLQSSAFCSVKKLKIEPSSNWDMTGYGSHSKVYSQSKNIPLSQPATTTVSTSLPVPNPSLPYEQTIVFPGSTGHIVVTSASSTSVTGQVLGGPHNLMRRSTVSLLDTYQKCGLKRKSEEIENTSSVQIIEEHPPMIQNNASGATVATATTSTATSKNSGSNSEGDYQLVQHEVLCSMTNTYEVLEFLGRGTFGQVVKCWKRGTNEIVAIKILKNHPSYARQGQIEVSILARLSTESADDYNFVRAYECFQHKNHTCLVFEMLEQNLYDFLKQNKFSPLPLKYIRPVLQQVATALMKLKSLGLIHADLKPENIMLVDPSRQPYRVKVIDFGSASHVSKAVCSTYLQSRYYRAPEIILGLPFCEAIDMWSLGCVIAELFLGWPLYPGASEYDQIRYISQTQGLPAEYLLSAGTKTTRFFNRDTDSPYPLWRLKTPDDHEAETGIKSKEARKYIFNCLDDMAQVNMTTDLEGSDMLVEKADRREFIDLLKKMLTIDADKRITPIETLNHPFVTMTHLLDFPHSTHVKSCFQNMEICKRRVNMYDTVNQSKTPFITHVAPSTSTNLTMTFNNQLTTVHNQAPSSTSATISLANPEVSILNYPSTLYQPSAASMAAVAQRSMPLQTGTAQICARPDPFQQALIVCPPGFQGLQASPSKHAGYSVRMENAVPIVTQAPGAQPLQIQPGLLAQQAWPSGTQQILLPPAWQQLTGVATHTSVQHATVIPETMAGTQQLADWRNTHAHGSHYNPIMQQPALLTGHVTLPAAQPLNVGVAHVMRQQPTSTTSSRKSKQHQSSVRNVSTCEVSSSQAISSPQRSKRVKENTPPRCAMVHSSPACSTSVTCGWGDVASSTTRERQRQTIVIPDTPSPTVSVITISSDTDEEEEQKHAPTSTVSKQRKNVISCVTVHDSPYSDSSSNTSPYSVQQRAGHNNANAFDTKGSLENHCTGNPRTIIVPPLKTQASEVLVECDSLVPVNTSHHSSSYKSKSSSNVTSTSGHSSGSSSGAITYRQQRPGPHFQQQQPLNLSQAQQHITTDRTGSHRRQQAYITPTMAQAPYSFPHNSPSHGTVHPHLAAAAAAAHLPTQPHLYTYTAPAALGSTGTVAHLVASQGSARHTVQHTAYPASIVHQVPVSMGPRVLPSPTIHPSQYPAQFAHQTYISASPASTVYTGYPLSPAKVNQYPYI
PBK (human), sequence (Q96KB5 whole entry, looked up): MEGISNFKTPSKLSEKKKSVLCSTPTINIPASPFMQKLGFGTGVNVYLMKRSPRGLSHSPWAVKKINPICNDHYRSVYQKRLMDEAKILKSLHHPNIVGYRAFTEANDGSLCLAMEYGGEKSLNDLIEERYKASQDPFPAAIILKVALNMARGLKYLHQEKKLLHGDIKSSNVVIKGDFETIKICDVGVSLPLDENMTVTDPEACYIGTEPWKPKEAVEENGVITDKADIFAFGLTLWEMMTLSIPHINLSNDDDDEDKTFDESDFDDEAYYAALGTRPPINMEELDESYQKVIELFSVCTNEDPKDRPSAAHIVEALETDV

c1ccc(-c2cnc(Nc3ccc(OCCN4CCCC4)cc3)s2)cc1
residual activity (CDC42BPB (human)): 96.7%
residual activity (PHKG1 (human)): 45.5%
residual activity (MARK2 (human)): 88%
residual activity (MAP3K2 (human)): 104%
residual activity (CSNK2A1 (human)): 90.7%
residual activity (PAK3 (human)): 99.1%
residual activity (CLK4 (human)): 97.9%
residual activity (INSRR (human)): 99.6%
residual activity (IGF1R (human)): 112%
residual activity (RPS6KB1 (human)): 92.3%
residual activity (PAK2 (human)): 94.8%
residual activity (NEK11 (human)): 95%
residual activity (SRPK1 (human)): 99.9%
residual activity (NLK (human)): 89.7%
residual activity (IRAK1 (human)): 109%
residual activity (AKT2 (human)): 92.4%
residual activity (ULK1 (human)): 127%
residual activity (PRKCB2 (human)): 104%
residual activity (DYRK2 (human)): 95%
residual activity (ERBB2 (human)): 101%
residual activity (ULK2 (human)): 78.3%
residual activity (EPHA3 (human)): 98.7%
residual activity (STK10 (human)): 76.9%
residual activity (CSNK1G2 (human)): 100%
residual activity (RPS6KA3 KD1 KD2 (human)): 92.2%
residual activity (MET (human)): 89.7%
residual activity (CDK5 CDK5R1 p35 (human)): 82.4%
residual activity (RET (human)): 84.2%
residual activity (NTRK3 (human)): 22.6%
residual activity (PBK (human)): 108%
residual activity (GSK3B (human)): 100%
residual activity (TSSK1B (human)): 96.5%
residual activity (LRRK2 (human)): 95.8%
residual activity (CHUK (human)): 93.3%
residual activity (MAP2K2 (human)): 90.2%
residual activity (DMPK (human)): 110%
residual activity (PLK2 (human)): 105%
residual activity (HIPK2 (human)): 97.5%
residual activity (MARK3 (human)): 93.1%
residual activity (MUSK (human)): 84.2%
residual activity (PDGFRA (human)): 57.4%
residual activity (DDR2 (human)): 86.6%
